Assay results taken from patent publication US10793543B2, “Selective C-KIT kinase inhibitor” (PRECEDO PHARMACEUTICALS CO., LTD, priority 2016, dated 2020).

Legend:
[1] = tested on: Tel-PDGFRα-BaF3 cells (PDGFRα); assay: Cell proliferation, CCK-8, Tel-PDGFRα-BaF3; assay type: cell-based; conditions: Mus musculus, 72 hours
Text: (§1) In addition, in the present example, further uses: mouse P210/BaF3 (stably expressing P210 Bcr-Abl mutant gene), mouse Tel-ABL-BaF3 (stably expressing wild-type ABL kinase), mouse Tel-cKit-BaF3 (stably expressing C-KITwild-type kinase), mouse Tel-cKit/V559D-BaF3 (stably expressing C-KIT V559D mutant kinase), mouse Tel-cKit/V559D/V654A-BaF3 (stably expressing C-KIT V559D/V654A mutant kinase), mouse Tel-cKit/N822K-BaF3 (stably expressing C-KIT N822K mutant kinase), mouse Tel-cKit/V654A-BaF3 (stably expressing C-KIT V654A mutant kinase), mouse Tel-cKit/L567P-BaF3 (stably expressing C-KIT L567P mutant kinase), mouse Tel-cKit/T670I-BaF3 (stably expressing C-KIT T670I mutant kinase), mouse Tel-PDGFRα-BaF3 (stably expressing PDGFRα kinase), mouse Tel-PDGFRβ-BaF3 (stably expressing PDGFRβ kinase), mouse Tel-VEGFR2-BaF3 (stably expressing VEGFR2 kinase), mouse Tel-RET-BaF3 (stably expressing RET kinase). The above cell lines were all constructed by our laboratory according to the following method: the kinase region sequences of human P210 Bcr-Abl, ABL, C-KIT, C-KIT V559D, C-KIT V559D/V654A, C-KIT N822K, C-KIT V654A, C-KIT L567P, C-KIT T670I, PDGFRα, PDGFRβ, VEGFR2, RET were amplified respectively by PCR, inserted respectively into MSCV-Puro vectors harboring N-terminal TEL fragment and/or NPM fragment and/or TPR fragment (Clontech), then the vectors were stably transfected into mouse BaF3 cells by retrovirus methods and growth factor IL-3 was removed, eventually obtaining cell lines that are transferred protein (P210 Bcr-Abl, ABL, C-KIT, C-KIT V559D, C-KIT V559D/V654A, C-KIT N822K, C-KIT V654A, C-KIT L567P, C-KIT T670I, PDGFRα, PDGFRβ, VEGFR2, RET)-dependent.
(§2) The cells were incubated for 72 hours, and then the number of viable cells was quantified with a microplate reader by using CCK-8 Cell Viability Assay Kit (purchased from Bestbio Company, Shanghai, China) (CCK-8 can be reduced by dehydrogenase in living cells to a highly water-soluble yellow formazan product, and the amount of formazan produced is proportional to the number of living cells).

[2] = tested on: Tel-cKit/L576P-BaF3 cells (KIT L576P); assay: Cell proliferation, CCK-8, Tel-cKit/L576P-BaF3; assay type: cell-based; conditions: Mus musculus, 72 hours
Text: as §1, §2

GIST-882 cells = assay: Cancer cell proliferation, CCK-8, GIST-882; assay type: cell-based; conditions: Homo sapiens, GIST882, GIST-882, KIT WT, 72 hours
Text: (§3) In the present example, the following cells were used: chronic myelogenous leukemia cells K562 (expressing P210 Bcr-Abl mutant gene), human megakaryocytic leukemia cells MEG-01 (expressing P210 Bcr-Abl mutant gene), human peripheral blood basophilic leukemia cells Ku812 (expressing Bcr-Abl mutant gene) (all above cells purchased from ATCC, USA), human gastrointestinal stromal tumor cell lines GIST-T1 cells (expressing wild-type C-KIT gene) (purchased from Cosmo Bio Co., Ltd., Japan), human gastrointestinal stromal tumor cell lines GIST-882 cells (expressing wild-type C-KIT gene) (presented by the Professor Gray Lab, Dana-Farber Cancer Institute, Harvard University, USA), mouse pro-B cells BaF3 (purchased from ATCC, USA).
as §2

[3] = tested on: Tel-cKit-BaF3 cells (KIT WT); assay: Cell proliferation, CCK-8, Tel-cKit-BaF3; assay type: cell-based; conditions: Mus musculus, 72 hours
Text: as §1, §2

[4] = Acute toxicity assay in mice, single oral gavage; assay type: in vivo; conditions: for Number of death (number of death/number of animals in each group): female mice, 7 days observation
Protocol: 1. 4-6 week-old Bal b/c female mice were purchased from Shanghai SLAC Experimental Animal Co., Ltd., and were raised in a SPF-level laboratory. Drinking water and padding were both subjected to aseptic processing via high-pressure disinfection, and all operations of the mice were conducted under aseptic conditions; 10 healthy mice were selected, and were balanced and randomly divided into 5 groups according to their weights.
2. Specific Information for Administration
Route of administration: oral gavage
Observation period: 7 days.
3. Observation Indicators
Weighing frequency: upon grouping, the day of administration (D0) to the seventh day after administration (D7). Based on the mouse weight on D0 (starting value of 100%), the graph of the relative body weight over time was plotted.
3.2. Clinical Symptoms Observation
Strict observation was carried out within 4 hours after administration, and then observation was carried out twice a day for a total of 7 days. Observation was carried out and abnormal symptoms or phenomena in each of animals were recorded.
The number of animals died in each of dosage groups during the observation period.
Comprehensive determination was performed based on animal mortality, clinical symptoms and body weights.

Ku812 cells (Bcr-Abl) = assay: Cancer cell proliferation, CCK-8, Ku812; assay type: cell-based; conditions: Homo sapiens; Ku812, Bcr-Abl, 72 hours, CCK-8; read-out: GI50
Text: as §3, §2

[5] = tested on: P210/BaF3 cells (P210 Bcr-Abl); assay: Cell proliferation, CCK-8, P210/BaF3; assay type: cell-based; conditions: Mus musculus; P210/BaF3, Bcr-Abl, 72 hours, CCK-8; read-out: GI50
Text: (§4) In addition, in the present example, further uses: mouse P210/BaF3 (stably expressing P210 Bcr-Abl mutant gene), mouse Tel-ABL-BaF3 (stably expressing wild-type ABL kinase), mouse Tel-cKit-BaF3 (stably expressing C-KITwild-type kinase), mouse Tel-cKit/V559D-BaF3 (stably expressing C-KIT V559D mutant kinase), mouse Tel-cKit/V559D/V654A-BaF3 (stably expressing C-KIT V559D/V654A mutant kinase), mouse Tel-cKit/N822K-BaF3 (stably expressing C-KIT N822K mutant kinase), mouse Tel-cKit/V654A-BaF3 (stably expressing C-KIT V654A mutant kinase), mouse Tel-cKit/L567P-BaF3 (stably expressing C-KIT L567P mutant kinase), mouse Tel-cKit/T670I-BaF3 (stably expressing C-KIT T670I mutant kinase), mouse Tel-PDGFRα-BaF3 (stably expressing PDGFRα kinase), mouse Tel-PDGFRβ-BaF3 (stably expressing PDGFRβ kinase), mouse Tel-VEGFR2-BaF3 (stably expressing VEGFR2 kinase), mouse Tel-RET-BaF3 (stably expressing RET kinase). […]
as §2

[6] = tested on: Tel-cKit/V654A-BaF3 cells (KIT V654A); assay: Cell proliferation, CCK-8, Tel-cKit/V654A-BaF3; assay type: cell-based; conditions: Mus musculus, 72 hours
Text: as §1, §2

[7] = tested on: MEG-01 cells (P210 Bcr-Abl); assay: Cancer cell proliferation, CCK-8, MEG-01; assay type: cell-based; conditions: Homo sapiens; MEG-01, P210 Bcr-Abl, 72 hours, CCK-8; read-out: GI50
Text: as §3, §2

[8] = tested on: Tel-cKit/V559D-BaF3 cells (KIT V559D); assay: Cell proliferation, CCK-8, Tel-cKit/V559D-BaF3; assay type: cell-based; conditions: Mus musculus, 72 hours
Text: as §1, §2

[9] = tested on: Tel-ABL-BaF3 cells (ABL WT); assay: Cell proliferation, CCK-8, Tel-ABL-BaF3; assay type: cell-based; conditions: Mus musculus; Tel-ABL-BaF3, ABL WT, 72 hours, CCK-8; read-out: GI50
Text: as §4, §2

[10] = tested on: Tel-RET-BaF3 cells (RET WT); assay: Cell proliferation, CCK-8, Tel-RET-BaF3; assay type: cell-based; conditions: Mus musculus, 72 hours
Text: as §1, §2

Cc1ccc(NC(=O)c2cccc(C(F)(F)F)c2)cc1OC1CCN(C(=O)c2ccncc2)CC1 [Compound 4]
GI50 [1]: 38 nM
GI50 [2]: 148 nM
GI50 (GIST-882 cells): 43 nM
GI50 [3]: 190 nM
Number of death (number of death/number of animals in each group) ([4]; 250 mg/kg single oral gavage): ♀: 0/2:
Number of death (number of death/number of animals in each group) ([4]; 500 mg/kg single oral gavage): ♀: 0/2:
effect on mouse weight ([4]; 1000 mg/kg single oral gavage): no significant effect on mouse weight
Number of death (number of death/number of animals in each group) ([4]; 1000 mg/kg single oral gavage): ♀: 0/2:
effect on mouse weight ([4]; 2000 mg/kg single oral gavage): decreased slightly
Number of death (number of death/number of animals in each group) ([4]; 2000 mg/kg single oral gavage): ♀: 0/2:
mouse organs on dissection ([4]; dissected after 7 days, single oral gavage): no obvious abnormalities
mice died ([4]; mouse, in vivo): no mouse died
maximum tolerated dosage ([4]; mouse, single oral gavage): 2000 mg/kg
GI50 (Ku812 cells (Bcr-Abl)): 6710 nM
GI50 [5]: 6050 nM
GI50 [6]: 1030 nM
GI50 [7]: 7430 nM
GI50 [8]: 40 nM
GI50 [9]: 5060 nM
GI50 [10]: 590 nM
